Experimental data: patent US20100286081A1, “5-AMINO-3-(2',3'-DI-O-ACETYL-BETA-D-RIBOFURANOSYL)-3H-THIAZOLO[4,5-D] PYRIMIDIN-2-OCE SALTS AND CRYSTALLINE FORMS” (Anadys Pharmaceuticals Inc., priority 2006, published 2010)

Key:
[1] = Water sorption curve (DVS analysis at 25° C.); assay type: physicochemical; conditions: for Weight change in %: DVS analysis at 25° C.
Excerpt: Water Sorption Curve of 5-amino-3-(2′,3′-di-O-acetyl-beta-D-ribofuranosyl)-3H-thiazolo[4,5-d]pyrimidin-2-one Amorphous Base (FIG. 6)
Water Sorption Curve of 5-amino-3-(2′,3′-di-O-acetyl-beta-D-ribofuranosyl)-3H-thiazolo[4,5-d]pyrimidin-2-one Maleate Salt (FIG. 7)

[2] = Stability of polymorphic form; assay type: physicochemical

SMILES	Hygroscopicity (in words) [1]	Weight change in % ([1]; 0-20% r.h.) [%]	Weight change in % ([1]; 0-40% r.h.) [%]	Weight change in % ([1]; 0-60% r.h.) [%]	Weight change in % ([1]; 0-80% r.h.) [%]	Weight change in % ([1]; 0-95% r.h.) [%]	Stability of polymorphic form (in words) [2]
CC(=O)O[C@@H]1[C@H](OC(C)=O)[C@@H](CO)O[C@H]1n1c(=O)sc2cnc(N)nc21 [5-Amino-3-(2′,3′-di-O-acetyl-beta-D-ribofuranosyl)-3H-thiazolo[4,5-d]pyrimidin-2-one]	hygroscopic	0.50	0.86	1.55	3.07	4.68	–
CC(=O)O[C@@H]1[C@H](OC(C)=O)[C@@H](CO)O[C@H]1n1c(=O)sc2cnc(N)nc21.O=C(O)/C=C\C(=O)O [5-amino-3-(2′,3′-di-O-acetyl-beta-D-ribofuranosyl)-3H-thiazolo[4,5-d]pyrimidin-2-one maleate]	–	0.08	0.17	0.23	0.32	0.31	–
CC(=O)O[C@@H]1[C@H](OC(C)=O)[C@@H](CO)O[C@H]1n1c(=O)sc2cnc(N)nc21.O=C(O)/C=C\C(=O)O [Form B, 5-Amino-3-(2′,3′-di-O-acetyl-beta-D-ribofuranosyl)-3H-thiazolo[4,5-d]pyrimidin-2-one maleate]	–	–	–	–	–	–	particularly stable polymorphic form
